Measurements taken from ChEMBL document CHEMBL1201862, “PubChem BioAssay data set” (2004).
Values belong to the compound of their own block, whether it stands above or below them. Active and inactive are the calls of the source.

Experiments:
[1] = target: T1, Type-1 angiotensin II receptor (Homo sapiens, UniProt P30556); assay: agonist activity at AGTR1 – cell-based, uHTS hits, selectivity assay for APJ receptor agonist project, dose response (AID 488865); format: functional;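 note: beta-arrestin recruitment to AT1 measured by enzyme fragment complementation luminescence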
T1 sequence (P30556 whole entry): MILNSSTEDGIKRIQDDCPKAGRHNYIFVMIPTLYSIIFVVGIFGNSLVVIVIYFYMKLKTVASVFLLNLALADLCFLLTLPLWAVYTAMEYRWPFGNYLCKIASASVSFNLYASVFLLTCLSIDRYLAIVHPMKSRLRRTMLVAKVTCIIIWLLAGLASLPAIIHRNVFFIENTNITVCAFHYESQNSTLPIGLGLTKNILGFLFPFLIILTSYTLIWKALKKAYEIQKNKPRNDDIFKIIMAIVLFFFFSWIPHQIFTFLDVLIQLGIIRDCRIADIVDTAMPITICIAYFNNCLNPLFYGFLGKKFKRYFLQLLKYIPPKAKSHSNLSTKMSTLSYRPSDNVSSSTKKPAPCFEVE

Cytochrome P450 3A4 = Cytochrome P450 3A4 (Homo sapiens, UniProt P08684);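 note: CYP3A4 tested as one member of a cytochrome P450 panel screen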
Sequence of Cytochrome P450 3A4 (P08684 whole entry): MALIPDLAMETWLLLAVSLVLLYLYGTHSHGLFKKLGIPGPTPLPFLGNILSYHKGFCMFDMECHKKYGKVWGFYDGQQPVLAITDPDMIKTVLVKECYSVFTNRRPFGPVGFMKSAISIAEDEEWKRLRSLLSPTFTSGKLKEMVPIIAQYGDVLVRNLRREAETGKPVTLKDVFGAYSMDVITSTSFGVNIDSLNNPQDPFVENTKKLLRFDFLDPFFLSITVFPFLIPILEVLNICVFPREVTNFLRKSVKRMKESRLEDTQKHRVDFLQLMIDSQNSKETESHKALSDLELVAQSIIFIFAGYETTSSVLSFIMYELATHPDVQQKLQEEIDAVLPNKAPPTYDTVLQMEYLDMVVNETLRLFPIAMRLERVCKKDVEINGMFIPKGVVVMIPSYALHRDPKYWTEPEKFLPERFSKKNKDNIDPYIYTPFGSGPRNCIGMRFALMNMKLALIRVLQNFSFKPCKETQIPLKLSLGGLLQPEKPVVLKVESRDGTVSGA

Cytochrome P450 1A2 = target: T2, Cytochrome P450 1A2 (Homo sapiens, UniProt P05177);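 note: PubChem cytochrome P450 panel assay, CYP1A2 panel member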
T2 sequence (P05177 whole entry): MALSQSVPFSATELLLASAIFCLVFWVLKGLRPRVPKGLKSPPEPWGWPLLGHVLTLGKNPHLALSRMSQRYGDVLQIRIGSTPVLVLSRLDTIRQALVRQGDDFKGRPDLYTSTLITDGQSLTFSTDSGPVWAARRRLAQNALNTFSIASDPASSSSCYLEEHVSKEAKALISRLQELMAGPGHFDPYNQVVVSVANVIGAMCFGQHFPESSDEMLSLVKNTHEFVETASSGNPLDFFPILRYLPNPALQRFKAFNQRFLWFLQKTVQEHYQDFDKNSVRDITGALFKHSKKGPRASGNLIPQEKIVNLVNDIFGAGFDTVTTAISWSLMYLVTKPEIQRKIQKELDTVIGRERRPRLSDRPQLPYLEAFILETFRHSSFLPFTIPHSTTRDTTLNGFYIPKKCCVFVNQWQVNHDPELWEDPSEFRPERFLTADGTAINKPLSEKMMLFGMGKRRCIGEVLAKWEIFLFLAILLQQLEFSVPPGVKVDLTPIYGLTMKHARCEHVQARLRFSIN

[2] = Luminescence Cell-Based/Microorganism Confirmation at Dose of Inhibitors of Trypanosoma cruzi Infection. [Related pubchem assays: 1885, 1968 ]; format: functional
[3] = Trypanosoma cruzi growth suppression in host cells – NIH3T3 host cells, beta-gal luminescence, confirmation (AID 2044); format: functional, cell-based;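 note: intracellular parasites grown in NIH/3T3 mouse fibroblasts as host cells; luminescent beta-galactosidase reporter signal from transgenic T. cruzi replicating inside host cells; inhibitors lower the luminescence signal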
[4] = NIH3T3 cell viability loss – ATP luminescence, mouse fibroblasts, counter-screen, dose response (AID 2010); format: functional, cell-based;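 note: cells exposed to compound for about 90 hours before reading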
[5] = T. cruzi infection blockers in NIH3T3 cells – beta-gal luminescence, NIH3T3 host cells, confirmation (AID 2630); format: functional, cell-based; details: Mus musculus
[6] = viability of uninfected HEp-2 cells – cell-based, HTS, cytotoxicity control for RSV inhibitor project, dose response (AID 2410); format: functional; details: human respiratory syncytial virus
[7] = target: G-protein coupled receptor 55 (Homo sapiens, UniProt Q9Y2T6); assay: inhibition of LPI-stimulated GPR55 beta-arrestin translocation – imaging, U2OS, beta-arrestin-GFP, LPI agonist, primary screen (AID 2013); format: functional;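 note: antagonist potency measured as reduced agonist-driven arrestin aggregation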
Sequence of G-protein coupled receptor 55 (Q9Y2T6 whole entry): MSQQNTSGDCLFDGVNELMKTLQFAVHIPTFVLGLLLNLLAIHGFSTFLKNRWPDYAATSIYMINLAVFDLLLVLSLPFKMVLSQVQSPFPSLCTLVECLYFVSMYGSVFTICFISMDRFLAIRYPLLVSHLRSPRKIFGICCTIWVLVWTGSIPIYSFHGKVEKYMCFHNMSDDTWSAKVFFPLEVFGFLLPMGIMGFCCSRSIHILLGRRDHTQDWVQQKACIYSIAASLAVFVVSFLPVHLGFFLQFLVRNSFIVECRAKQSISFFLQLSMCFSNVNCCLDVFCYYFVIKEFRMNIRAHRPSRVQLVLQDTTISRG

Cytochrome P450 2C19 = Cytochrome P450 2C19 (Homo sapiens, UniProt P33261); assay: Cytochrome panel assay with activity outcomes. Panel member name: p450-cyp2c19 Compounds with AC50 equal or less than 10 uM are considered active; format: functional
Sequence of Cytochrome P450 2C19 (P33261 whole entry): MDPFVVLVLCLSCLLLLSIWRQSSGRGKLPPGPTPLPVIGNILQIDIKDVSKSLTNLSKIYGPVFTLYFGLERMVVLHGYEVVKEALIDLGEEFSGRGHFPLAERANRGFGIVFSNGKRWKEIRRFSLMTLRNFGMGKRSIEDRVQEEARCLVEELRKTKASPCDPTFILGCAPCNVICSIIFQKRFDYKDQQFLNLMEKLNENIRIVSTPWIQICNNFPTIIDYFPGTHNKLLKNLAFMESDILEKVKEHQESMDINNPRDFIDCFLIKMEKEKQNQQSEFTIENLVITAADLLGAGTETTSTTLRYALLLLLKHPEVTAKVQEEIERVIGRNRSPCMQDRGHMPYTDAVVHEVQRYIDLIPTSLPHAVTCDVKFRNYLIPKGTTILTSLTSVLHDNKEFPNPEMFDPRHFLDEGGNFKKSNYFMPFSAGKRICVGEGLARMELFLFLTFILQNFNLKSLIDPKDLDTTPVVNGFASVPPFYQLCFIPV

Cytochrome P450 2D6 = Cytochrome P450 2D6 (Homo sapiens, UniProt P10635);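 note: CYP2D6 member of a cytochrome P450 panel assay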
Sequence of Cytochrome P450 2D6 (P10635 whole entry): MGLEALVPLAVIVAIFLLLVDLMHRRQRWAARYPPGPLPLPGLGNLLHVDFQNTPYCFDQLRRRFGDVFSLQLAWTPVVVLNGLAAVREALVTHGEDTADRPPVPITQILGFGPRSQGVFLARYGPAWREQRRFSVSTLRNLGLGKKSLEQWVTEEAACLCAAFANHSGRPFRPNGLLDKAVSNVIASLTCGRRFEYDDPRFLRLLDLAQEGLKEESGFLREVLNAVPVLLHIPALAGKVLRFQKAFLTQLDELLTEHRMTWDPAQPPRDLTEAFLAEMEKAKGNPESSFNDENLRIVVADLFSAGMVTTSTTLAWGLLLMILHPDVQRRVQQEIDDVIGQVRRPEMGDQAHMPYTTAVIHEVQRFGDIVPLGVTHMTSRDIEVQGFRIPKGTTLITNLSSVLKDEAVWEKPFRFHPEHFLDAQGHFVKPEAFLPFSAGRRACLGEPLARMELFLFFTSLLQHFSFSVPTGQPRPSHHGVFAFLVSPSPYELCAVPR

[8] = target: T3, Intestinal-type alkaline phosphatase (Mus musculus, UniProt P24822); assay: PubChem AID 488875; format: functional
T3 sequence (P24822 whole entry): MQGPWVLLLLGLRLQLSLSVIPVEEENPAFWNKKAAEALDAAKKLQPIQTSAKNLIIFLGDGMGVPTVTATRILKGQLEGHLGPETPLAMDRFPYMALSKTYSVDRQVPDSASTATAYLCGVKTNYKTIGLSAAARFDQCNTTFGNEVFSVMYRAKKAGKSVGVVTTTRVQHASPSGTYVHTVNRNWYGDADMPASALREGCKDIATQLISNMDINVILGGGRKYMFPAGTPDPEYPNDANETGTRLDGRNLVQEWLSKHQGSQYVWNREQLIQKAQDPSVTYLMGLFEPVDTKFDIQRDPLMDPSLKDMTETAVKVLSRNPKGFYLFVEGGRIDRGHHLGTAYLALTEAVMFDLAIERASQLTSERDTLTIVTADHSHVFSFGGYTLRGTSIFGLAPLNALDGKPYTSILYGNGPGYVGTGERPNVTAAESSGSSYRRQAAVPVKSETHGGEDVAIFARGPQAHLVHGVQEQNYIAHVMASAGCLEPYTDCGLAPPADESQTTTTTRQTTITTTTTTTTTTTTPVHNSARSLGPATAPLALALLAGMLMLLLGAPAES

[9] = target: T4, Intestinal-type alkaline phosphatase (Homo sapiens, UniProt P09923); assay: activation of human intestinal alkaline phosphatase – biochemical, dose response (AID 488873); format: functional
T4 sequence (P09923 whole entry): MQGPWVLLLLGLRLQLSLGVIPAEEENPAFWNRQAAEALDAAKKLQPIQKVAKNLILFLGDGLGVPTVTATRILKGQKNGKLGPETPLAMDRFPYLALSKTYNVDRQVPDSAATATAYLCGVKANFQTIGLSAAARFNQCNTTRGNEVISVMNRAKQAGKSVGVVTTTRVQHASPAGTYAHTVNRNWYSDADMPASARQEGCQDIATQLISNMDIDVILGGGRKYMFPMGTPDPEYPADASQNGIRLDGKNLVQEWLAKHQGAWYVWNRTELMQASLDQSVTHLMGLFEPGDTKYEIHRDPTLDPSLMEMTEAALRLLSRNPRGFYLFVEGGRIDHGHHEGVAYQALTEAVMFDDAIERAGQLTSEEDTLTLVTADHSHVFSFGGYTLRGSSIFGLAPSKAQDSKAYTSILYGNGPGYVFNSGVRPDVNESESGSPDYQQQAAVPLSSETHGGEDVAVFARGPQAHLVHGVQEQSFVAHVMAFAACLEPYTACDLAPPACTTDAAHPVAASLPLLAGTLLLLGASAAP

[10] = target: T4, Intestinal-type alkaline phosphatase; assay: human intestinal alkaline phosphatase activators, dose response, biochemical, luminescence, uHTS hits (AID 463120); format: functional
[11] = target: T3, Intestinal-type alkaline phosphatase; assay: PubChem AID 488785; format: functional
[12] = target: T5, Alkaline phosphatase, tissue-nonspecific isozyme (Homo sapiens, UniProt P05186); assay: TNAP enzyme inhibition by screening hits, dose response, selectivity assay for mouse IAP inhibitor project, biochemical, human TNAP, uHTS hits (AID 488906); format: functional
T5 sequence (P05186 whole entry): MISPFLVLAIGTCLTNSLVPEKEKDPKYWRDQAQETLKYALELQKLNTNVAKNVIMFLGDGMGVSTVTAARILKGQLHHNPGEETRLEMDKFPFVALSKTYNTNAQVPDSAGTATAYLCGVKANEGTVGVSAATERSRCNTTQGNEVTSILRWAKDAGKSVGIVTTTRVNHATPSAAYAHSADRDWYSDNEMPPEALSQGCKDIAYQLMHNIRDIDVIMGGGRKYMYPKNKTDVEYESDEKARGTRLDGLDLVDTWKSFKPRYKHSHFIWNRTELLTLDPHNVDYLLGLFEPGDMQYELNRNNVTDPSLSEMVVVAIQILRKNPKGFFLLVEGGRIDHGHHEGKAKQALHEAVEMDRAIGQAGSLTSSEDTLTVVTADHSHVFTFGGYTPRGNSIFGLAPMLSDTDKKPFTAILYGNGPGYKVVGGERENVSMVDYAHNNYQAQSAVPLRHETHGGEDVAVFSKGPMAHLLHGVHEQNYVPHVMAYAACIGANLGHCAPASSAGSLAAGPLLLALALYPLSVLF

[13] = target: T4, Intestinal-type alkaline phosphatase; assay: activation of human intestinal alkaline phosphatase – biochemical, luminescent, uHTS hits, set 2, dose response (AID 488817); format: functional;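 note: potency of activators that raise enzyme activity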
[14] = target: T5, Alkaline phosphatase, tissue-nonspecific isozyme; assay: activation of tissue-nonspecific alkaline phosphatase – biochemical, TNAP isozyme, human IAP uHTS hits, selectivity assay for human IAP activator project, dose response (AID 488886); format: functional;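 note: potency of compounds raising TNAP activity as a selectivity check on IAP activators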
[15] = target: Lysine-specific demethylase 4A (Homo sapiens, UniProt O75164); assay: inhibition of JMJD2A H3K9me3 demethylation – biochemical, DELFIA europium, cherry-picked samples, selectivity assay for GASC-1 inhibitor project, dose response (AID 488840)
Sequence of Lysine-specific demethylase 4A (O75164 whole entry): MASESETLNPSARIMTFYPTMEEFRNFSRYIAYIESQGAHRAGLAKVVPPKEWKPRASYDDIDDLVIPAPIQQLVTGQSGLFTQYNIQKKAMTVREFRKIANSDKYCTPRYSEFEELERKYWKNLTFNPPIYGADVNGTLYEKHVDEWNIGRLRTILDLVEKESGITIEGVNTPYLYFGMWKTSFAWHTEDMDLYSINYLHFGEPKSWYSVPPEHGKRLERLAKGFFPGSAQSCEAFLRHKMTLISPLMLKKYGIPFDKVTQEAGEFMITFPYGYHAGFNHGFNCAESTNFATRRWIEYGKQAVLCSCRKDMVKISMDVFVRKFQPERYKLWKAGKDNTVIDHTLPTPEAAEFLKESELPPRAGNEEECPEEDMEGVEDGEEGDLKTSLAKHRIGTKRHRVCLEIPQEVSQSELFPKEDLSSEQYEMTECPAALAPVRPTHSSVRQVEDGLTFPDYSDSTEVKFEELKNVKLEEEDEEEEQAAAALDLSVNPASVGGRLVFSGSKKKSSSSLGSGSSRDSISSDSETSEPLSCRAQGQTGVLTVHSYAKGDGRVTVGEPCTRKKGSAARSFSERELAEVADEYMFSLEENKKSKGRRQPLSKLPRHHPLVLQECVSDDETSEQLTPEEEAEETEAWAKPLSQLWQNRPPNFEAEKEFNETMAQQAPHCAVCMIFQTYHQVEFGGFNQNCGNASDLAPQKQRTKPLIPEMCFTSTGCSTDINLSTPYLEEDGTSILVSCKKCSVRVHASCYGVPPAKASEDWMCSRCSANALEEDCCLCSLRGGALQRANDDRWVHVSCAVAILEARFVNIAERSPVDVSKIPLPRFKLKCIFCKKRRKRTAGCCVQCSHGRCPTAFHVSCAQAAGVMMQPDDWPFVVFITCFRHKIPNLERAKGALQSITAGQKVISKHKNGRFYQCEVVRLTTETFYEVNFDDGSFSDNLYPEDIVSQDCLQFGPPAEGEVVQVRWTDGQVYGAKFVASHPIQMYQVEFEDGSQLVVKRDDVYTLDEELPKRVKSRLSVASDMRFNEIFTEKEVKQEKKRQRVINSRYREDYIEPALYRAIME

[16] = target: Lysine-specific demethylase 4C (Homo sapiens, UniProt Q9H3R0); assay: inhibition of JMJD2C H3K9me3 demethylation – biochemical, DELFIA europium, cherry-picked samples, dose response (AID 488835); format: functional
Sequence of Lysine-specific demethylase 4C (Q9H3R0 whole entry): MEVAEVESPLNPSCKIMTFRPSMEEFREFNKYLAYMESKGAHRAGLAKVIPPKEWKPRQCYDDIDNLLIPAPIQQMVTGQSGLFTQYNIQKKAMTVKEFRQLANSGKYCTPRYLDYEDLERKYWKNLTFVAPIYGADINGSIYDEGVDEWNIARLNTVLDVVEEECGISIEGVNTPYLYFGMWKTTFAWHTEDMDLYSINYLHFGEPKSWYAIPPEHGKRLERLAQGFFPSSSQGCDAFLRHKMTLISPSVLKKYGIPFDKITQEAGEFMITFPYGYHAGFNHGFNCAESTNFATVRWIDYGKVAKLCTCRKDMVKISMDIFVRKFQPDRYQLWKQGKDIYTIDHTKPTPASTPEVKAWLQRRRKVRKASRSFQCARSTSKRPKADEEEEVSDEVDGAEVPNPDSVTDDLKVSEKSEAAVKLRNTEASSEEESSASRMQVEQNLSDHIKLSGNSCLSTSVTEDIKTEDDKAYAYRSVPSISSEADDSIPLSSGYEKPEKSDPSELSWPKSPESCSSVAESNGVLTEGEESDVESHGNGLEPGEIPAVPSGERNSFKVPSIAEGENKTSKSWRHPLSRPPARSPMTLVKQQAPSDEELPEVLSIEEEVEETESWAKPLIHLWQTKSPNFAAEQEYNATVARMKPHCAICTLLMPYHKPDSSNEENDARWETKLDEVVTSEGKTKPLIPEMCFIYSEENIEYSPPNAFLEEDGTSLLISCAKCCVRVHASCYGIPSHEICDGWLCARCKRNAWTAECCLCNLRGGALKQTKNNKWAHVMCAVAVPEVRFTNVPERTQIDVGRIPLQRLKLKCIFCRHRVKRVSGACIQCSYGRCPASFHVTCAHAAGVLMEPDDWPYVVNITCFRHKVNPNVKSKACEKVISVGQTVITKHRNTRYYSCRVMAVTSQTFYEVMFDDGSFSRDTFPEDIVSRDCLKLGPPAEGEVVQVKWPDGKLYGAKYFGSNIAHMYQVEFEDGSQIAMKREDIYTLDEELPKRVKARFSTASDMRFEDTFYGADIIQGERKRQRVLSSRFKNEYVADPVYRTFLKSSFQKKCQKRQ

SMILES: O=C(c1ccc2c(c1)N(Cc1ccc(F)cc1)C(=O)CS2)N1CCOCC1
AC50 (Cytochrome P450 3A4): 25.1 µM (inconclusive) | AC50 (Cytochrome P450 1A2): inconclusive

SMILES: CC1CCCN(C(=O)Cc2cn(Cc3cccc(Cl)c3)c3ccccc23)C1 (stereo not given)
EC50 [2]: 2.81 µM (active) | EC50 [3]: 1.79 µM (active) | EC50 [4]: > 60 µM (not active) | EC50 [5]: 2.81 µM (active)

SMILES: COc1ccc(-c2csc(Nc3ccc(S(=O)(=O)Nc4cc(OC)nc(OC)n4)cc3)n2)cc1
CC50 [6]: 15.2 µM (active) | IC50 [7]: 4.76 µM (active)

SMILES: CC1=N/C(=C\c2ccc([N+](=O)[O-])cc2)C(=O)N1c1ccc(Cl)cc1
AC50 (Cytochrome P450 2C19): inconclusive | AC50 (Cytochrome P450 2D6): inconclusive

SMILES: Cn1c(=O)c2nc(O)cnc2n(C)c1=S
AC50 [15]: 45.3 µM (active) | AC50 [16]: 4.26 µM (active)

Next, values leading:

EC50 [1]: > 100 µM (inactive)
SMILES: COC(=O)CCCC1=CC2=CC(=O)C(C)(OC(=O)c3cccs3)C(=O)C2=CN1C1CCCCC1 (stereo not given)

EC50 [8]: 49.9 µM (active) | EC50 [9]: > 100 µM (inactive) | EC50 [10]: 59.8 µM (active) | IC50 [11]: 8.35 µM (active) | IC50 [12]: 23.4 µM (active) | EC50 [13]: 52.9 µM (active) | EC50 [14]: 54 µM (active)
SMILES: CCn1nc(C)c(CN2CCC(C(=O)Nc3cccc(-c4cccc(F)c4)c3)CC2)c1C
